According to article PMC5754384, “Evaluation of carboxamide-type synthetic cannabinoids as CB1/CB2 receptor agonists: difference between the enantiomers” (Forensic Toxicology, 2017):
Entries after “also recorded” stand apart in the source; their conditions may differ.

How the values were obtained:
human CB1 receptor = human CB1 receptor (Homo sapiens, UniProt P21554); test: [35S]GTPγS binding assay, CB1 receptor agonistic activity; type: biochemical; details: for Human CB1 receptor S/R ratio: EC50 value ratio of an (S)-enantiomer to the corresponding (R)-enantiomer; for CB1 receptor agonist activity (in words): [35S]GTPγS binding, maximum tested concentration 1.0 × 10^−4 M; for difference in the EC50 levels between the enantiomers to activate the CB1 receptor: (S)-enantiomer lower than (R)-enantiomer
human CB1 receptor, sequence (P21554 whole entry): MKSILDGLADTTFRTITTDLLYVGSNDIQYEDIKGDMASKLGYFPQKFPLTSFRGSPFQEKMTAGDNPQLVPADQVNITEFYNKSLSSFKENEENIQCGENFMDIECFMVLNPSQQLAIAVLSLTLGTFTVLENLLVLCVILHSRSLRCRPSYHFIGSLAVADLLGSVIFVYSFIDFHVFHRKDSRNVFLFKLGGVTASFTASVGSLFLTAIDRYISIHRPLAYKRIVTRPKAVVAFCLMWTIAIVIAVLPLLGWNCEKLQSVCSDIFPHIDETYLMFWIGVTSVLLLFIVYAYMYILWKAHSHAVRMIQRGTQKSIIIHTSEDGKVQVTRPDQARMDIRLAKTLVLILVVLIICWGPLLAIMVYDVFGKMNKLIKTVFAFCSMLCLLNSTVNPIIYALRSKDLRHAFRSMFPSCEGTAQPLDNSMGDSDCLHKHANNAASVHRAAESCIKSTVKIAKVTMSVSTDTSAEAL
Method: (§1) For the evaluation of CB1/CB2 cannabinoid receptor activity, [^35S]GTPγS binding assays were performed. These assays were performed at ADME and Tox. Research Institute, Sekisui Medical Co., Ltd. (Tokai-mura, Ibaraki, Japan).

human CB2 receptor = human CB2 receptor (Homo sapiens, UniProt P34972); test: [35S]GTPγS binding assay, CB2 receptor agonistic activity; type: biochemical; details: for Selective index (CB1/CB2): EC50 ratio of the CB1 to CB2; for Human CB2 receptor S/R ratio: EC50 value ratio of an (S)-enantiomer to the corresponding (R)-enantiomer; for EC50: Human CB2 receptor EC50, [35S]GTPγS binding, tested 1 × 10^−11 to 1 × 10^−4 M; for CB2 receptor agonist activity (in words): [35S]GTPγS binding
human CB2 receptor, sequence (P34972 whole entry): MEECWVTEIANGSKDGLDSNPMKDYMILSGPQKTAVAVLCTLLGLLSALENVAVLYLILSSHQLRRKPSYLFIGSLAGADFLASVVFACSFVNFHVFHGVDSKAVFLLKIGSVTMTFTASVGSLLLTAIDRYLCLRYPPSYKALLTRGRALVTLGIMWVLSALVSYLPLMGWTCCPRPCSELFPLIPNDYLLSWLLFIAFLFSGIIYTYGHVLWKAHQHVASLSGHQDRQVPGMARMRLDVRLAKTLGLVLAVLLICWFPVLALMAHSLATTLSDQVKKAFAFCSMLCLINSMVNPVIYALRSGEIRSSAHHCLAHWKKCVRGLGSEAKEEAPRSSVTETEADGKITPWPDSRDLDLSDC
Method: as §1

SMILES | EC50 (human CB1 receptor) | Human CB1 receptor S/R ratio (human CB1 receptor) | Selective index (CB1/CB2) (human CB2 receptor) | Human CB2 receptor S/R ratio (human CB2 receptor) | EC50 (human CB2 receptor) | CB1 receptor agonist activity (in words) (human CB1 receptor) | selective index of CB1/CB2 (human CB2 receptor; CB2 over CB1, from EC50 values) | CB2 receptor agonist activity (in words) (human CB2 receptor) | difference in the EC50 levels between the enantiomers to activate the CB1 receptor (human CB1 receptor)
CCOC(=O)[C@H](NC(=O)c1nn(CCCCCF)c2ccccc12)C(C)C [(R)5F-EMB-PINACA, Ethyl [1-(5-fluoropentyl)-1H-indazole-3-carbonyl]-D-valinate] | 35.9 nM | 0.14 | 21.4 | 4.1 | 1.68 nM | – | – | – | –
NC(=O)[C@@H](Cc1ccccc1)NC(=O)c1nn(CC2CCCCC2)c2ccccc12 [(R)-N-(1-Amino-1-oxo-3-phenylpropan-2-yl)-1-(cyclohexylmethyl)-1H-indazole-3-carboxamide] | 33700 nM | 0.0074 | 68.8 | 0.017 | 490 nM | – | – | – | –
CC(C)[C@@H](NC(=O)c1nn(Cc2ccccc2F)c2ccccc12)C(N)=O [(R)AB-FUBINACA 2-fluorobenzyl isomer, (R)-N-(1-Amino-3-methyl-1-oxobutan-2-yl)-1-(2-fluorobenzyl)-1H-indazole-3-carboxamide] | 14.1 nM | 0.21 | 22.5 | 3.9 | 0.627 nM | – | – | – | –
CCOC(=O)[C@H](NC(=O)c1nn(Cc2ccc(F)cc2)c2ccccc12)C(C)C [(R)EMB-FUBINACA, Ethyl [1-(4-fluorobenzyl)-1H-indazole-3-carbonyl]-D-valinate] | 30.7 nM | 0.015 | 35.6 | 2.5 | 0.863 nM | – | – | – | –
COC(=O)[C@H](NC(=O)c1cn(Cc2ccc(F)cc2)c2ccccc12)C(C)(C)C [(R)MDMB-FUBICA, Methyl (R)-2-[1-(4-fluorobenzyl)-1H-indole-3-carboxamido]-3,3-dimethylbutanoate] | > 100000 nM | <0.0001 | >30,000 | 0.35 | 3.1 nM | lacks CB1 receptor activity; also recorded: not confirmed; also recorded: no [^35S]GTPγS binding activity | more than 3.2 × 10^4 fold | function as an agonist of the CB2 receptor; also recorded: functioned only on the CB2 receptor as an agonist | –
CCOC(=O)[C@@H](NC(=O)c1nn(CCCCCF)c2ccccc12)C(C)C [(S)5F-EMB-PINACA, Ethyl [1-(5-fluoropentyl)-1H-indazole-3-carbonyl]-L-valinate] | 4.96 nM | 0.14 | 0.718 | 4.1 | 6.91 nM | – | – | – | –
NC(=O)[C@H](Cc1ccccc1)NC(=O)c1nn(CC2CCCCC2)c2ccccc12 [(S)-N-(1-Amino-1-oxo-3-phenylpropan-2-yl)-1-(cyclohexylmethyl)-1H-indazole-3-carboxamide] | 251 nM | 0.0074 | 31.0 | 0.017 | 8.09 nM | – | – | – | 134 fold
CC(C)[C@H](NC(=O)c1nn(Cc2ccccc2F)c2ccccc12)C(N)=O [(S)AB-FUBINACA 2-fluorobenzyl isomer, (S)-N-(1-Amino-3-methyl-1-oxobutan-2-yl)-1-(2-fluorobenzyl)-1H-indazole-3-carboxamide] | 2.92 nM | 0.21 | 1.20 | 3.9 | 2.44 nM | – | – | – | –
CCOC(=O)[C@@H](NC(=O)c1nn(Cc2ccc(F)cc2)c2ccccc12)C(C)C [(S)EMB-FUBINACA, Ethyl [1-(4-fluorobenzyl)-1H-indazole-3-carbonyl]-L-valinate] | 0.458 nM | 0.015 | 0.214 | 2.5 | 2.14 nM | – | – | – | –
COC(=O)[C@@H](NC(=O)c1cn(Cc2ccc(F)cc2)c2ccccc12)C(C)(C)C [(S)MDMB-FUBICA, Methyl (S)-2-[1-(4-fluorobenzyl)-1H-indole-3-carboxamido]-3,3-dimethylbutanoate] | 9.72 nM | <0.0001 | 9.08 | 0.35 | 1.07 nM | could activate both of these receptors at nanomolar levels | – | could activate both of these receptors at nanomolar levels | –
COC(=O)C(NC(=O)c1cn(Cc2ccc(F)cc2)c2ccccc12)C(C)(C)C (stereo not drawn) [MDMB-FUBICA, methyl 2-[1-(4-fluorobenzyl)-1H-indole-3-carboxamido]-3,3-dimethylbutanoate] | – | – | – | – | – | – | – | – | more than 10,000 fold
